molecular target: human DGAT2 (hDGAT2) (Homo sapiens (Human), UniProt Q96PD7); assay: DGAT2 enzymatic activity assay (triolein formation, LC/MS/MS); type: biochemical; conditions: Sf-9 membrane prep expressing hDGAT2; 25 μM diolein, 10 μM oleoyl-CoA; triolein by LC/MS/MS
Description: Sf-9 insect cells were maintained in Grace's insect cell culture medium with 10% heated-inactivated fetal bovine serum, 1% Pluronic F-68 and 0.14 μg/ml Kanamycine sulfate in Erlenmeyer flasks at 28° C. in a shaker incubator. After infection with untagged baculovirus expressing human DGAT2 (hDGAT2) at multiplicity of infection (MOI) 0.1 for 48 hours, cells were harvested. Cell pellets were suspended in buffer containing 10 mM Tris-HCl (pH 7.5), 1 mM EDTA (pH 8.0), 250 mM sucrose and Complete Protease Inhibitor Cocktail (Roche Diagnostics Corp., Indianapolis, Ill.), and sonicated on ice. Membrane fractions were isolated by ultracentrifugation (100,000×g pellet), resuspended in the same buffer, and frozen (−80° C.) for later use. The protein concentration was determined with the BCA Protein Assay kit (Pierce Biotechnology Inc., Rockford, Ill.). Expression of protein levels was analyzed by immunoblotting with goat polyclonal DGAT2 antibody C-15 and donkey anti-goat IgG HRP (Santa Cruz Biotechnology, Inc., Santa Cruz, Calif.) followed by detection with ECL reagent (GE Healthcare, Piscataway, N.J.).
LC/MS/MS analyses were performed using Thermal Fisher's LX4-TSQ Vantage system. This system consists of an Agilent binary high-performance liquid chromatography (HPLC) pumps and a TSQ Vantage triple quadrupole MS/MS instrument. For each sample, 2 μL samples from the top organic layer of in-plate liquid-liquid extraction were injected onto a Thermo Betabasic C4 column (2.1 mm×20 mm, 5 μm particle size). The samples were then eluted using the following conditions; mobile phase: methanol/water with 0.1% ammonium format=92/8 (v/v), flow rate: 1 mL/min, temperature: 25 C. Data was acquired in positive mode using a heated electrospray ionization (HESI) interface. The operational parameters for the TSQ Vantage MS/MS instrument were a spray voltage of 3000 V, capillary temperature of 280° C., vaporizer temperature 400° C., shealth gas 60 arbitrary unit, Aux gas 40 arbitrary units, S-lens 113 and collision gas 0.16 Pascals. […] (SRM) chromatograms of triolein (Q1:902.9>Q3:602.3) and internal standard (Q1:902.9>Q3:602.3) were collected for 40 sec. The peak area was integrated by Xcalibur Quan software. The ratio between the triolein generated in the reaction and spiked in internal standard was used to generate percentage inhibition and IC50 values. Compound percentage inhibition was calculated by the following formula: Inhibition %/=1−[(compound response−low control)/(high control−low control)]×100%. Potent compounds were titrated and IC50 were calculated by 4 parameter sigmoidal curve fitting formula.
DGAT2 activity was determined by measuring the amount of enzymatic product triolein (1,2,3-Tri(cis-9-octadecenoyl)glycerol) using the membrane prep mentioned above. The assay was carried out in deep well 384 plates in a final volume of 40 μL at rt. The assay mixture contained the following: assay buffer (100 mM Tris.Cl, pH 7.0, 20 mM MgCl2, 5% ethanol), 25 μM of diolein, 10 μM of oleoyl-CoA and 10 ng/μL of DGAT2 membrane.

human DGAT2 (hDGAT2), sequence (Q96PD7 whole entry): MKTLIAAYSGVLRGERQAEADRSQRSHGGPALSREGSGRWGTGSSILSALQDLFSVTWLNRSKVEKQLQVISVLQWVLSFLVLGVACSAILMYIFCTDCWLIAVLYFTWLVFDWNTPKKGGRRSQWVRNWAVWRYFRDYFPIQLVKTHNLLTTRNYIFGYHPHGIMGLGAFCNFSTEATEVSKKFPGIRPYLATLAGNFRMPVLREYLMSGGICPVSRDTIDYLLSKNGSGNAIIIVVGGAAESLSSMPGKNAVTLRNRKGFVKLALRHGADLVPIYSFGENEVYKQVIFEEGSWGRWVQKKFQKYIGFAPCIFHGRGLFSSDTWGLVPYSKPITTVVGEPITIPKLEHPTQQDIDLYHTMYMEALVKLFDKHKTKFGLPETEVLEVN

IC50 | Compound
0.73 nM | CC1(NC(=O)c2ccc3c(-c4cccc(C5CC5)c4)cn(-c4ccc(F)cn4)c3c2)CCS(=O)(=O)C1 (single isomer, unassigned; enantiomer b) [Example 12-B, 3-(3-cyclopropylphenyl)-1-(5-fluoropyridin-2-yl)-N-(3-methyl-1,1-dioxidotetrahydrothiophen-3-yl)-1H-indole-6-carboxamide (enantiomer B)]
476 nM | C[C@H](NC(=O)c1ccc2c(-c3ccccc3Cl)cn(-c3ccc(F)cc3)c2c1)c1ccc(C(F)(F)F)nc1 [Example 6, (S)-3-(2-chlorophenyl)-1-(4-fluorophenyl)-N-(1-(6-(trifluoromethyl)pyridin-3-yl)ethyl)-1H-indole-6-carboxamide]
942 nM | O=C(NC1CCS(=O)(=O)C1)c1ccc2c(-c3c(Cl)cccc3Cl)cn(-c3ccc(F)cc3)c2c1 (racemic) [Example 47, 3-(2,6-dichlorophenyl)-N-(1,1-dioxidotetrahydrothiophen-3-yl)-1-(4-fluorophenyl)-1H-indole-6-carboxamide (racemic)]
0.77 nM | CC1(NC(=O)c2ccc3c(-c4cncc(OC(F)F)c4)cn(-c4ccc(F)cc4)c3c2)CCS(=O)(=O)C1 (racemic) [Example 25, 3-(5-(difluoromethoxy)pyridin-3-yl)-1-(4-fluorophenyl)-N-(3-methyl-1,1-dioxidotetrahydrothiophen-3-yl)-1H-indole-6-carboxamide (racemic)]
2.1 nM | O=C(NC1CCS(=O)(=O)C1)c1ccc2c(-c3cccc(C4CC4)c3)cn(-c3ccc(F)cc3)c2c1 (racemic) [Example 46, 3-(3-cyclopropylphenyl)-N-(1,1-dioxidotetrahydrothiophen-3-yl)-1-(4-fluorophenyl)-1H-indole-6-carboxamide (racemic)]
18 nM | O=C(NC1CCS(=O)(=O)C1)c1ccc2c(-c3cccc(C(F)(F)F)c3)cn(-c3ccc(F)cc3)c2c1 (racemic) [Example 30, N-(1,1-dioxidotetrahydrothiophen-3-yl)-1-(4-fluorophenyl)-3-[3-(trifluoromethyl)phenyl]-1H-indole-6-carboxamide (racemic)]
15 nM | O=C(NC1CCS(=O)(=O)C1)c1ccc2c(-c3cccc(-n4cccn4)c3)cn(-c3ccc(F)cc3)c2c1 (racemic) [Example 38, N-(1,1-dioxidotetrahydrothiophen-3-yl)-1-(4-fluorophenyl)-3-[3-(1H-pyrazol-1-yl)phenyl]-1H-indole-6-carboxamide (racemic)]
55 nM | O=C(NC1CCS(=O)(=O)C1)c1ccc2c(-c3ccccc3)cn(-c3ccc(F)cc3)c2c1 (racemic) [Example 43, N-(1,1-dioxidotetrahydrothiophen-3-yl)-1-(4-fluorophenyl)-3-phenyl-1H-indole-6-carboxamide (racemic)]
102 nM | Cn1ccc2cc(-c3cn(-c4ccc(F)cc4)c4cc(C(=O)NC5CCS(=O)(=O)C5)ccc34)ccc21 (racemic) [Example 51, N-(1,1-dioxidotetrahydrothiophen-3-yl)-1-(4-fluorophenyl)-1′-methyl-1H,1′H-3,5′-biindole-6-carboxamide (racemic)]
2.9 nM | O=C(NC1CCS(=O)(=O)C1)c1ccc2c(-c3cccc(C4CC4)c3)cn(-c3ccc(F)cc3)c2c1 (single isomer, unassigned; enantiomer a) [Example 26-A, 3-(3-Cyclopropylphenyl)-N-(1,1-dioxidotetrahydrothiophen-3-yl)-1-(4-fluorophenyl)-1H-indole-6-carboxamide (Enantiomer A)]
9.8 nM | CC1(NC(=O)c2ccc3c(-c4ccccc4Cl)cn(-c4ccc(F)cn4)c3c2)CCS(=O)(=O)C1 (single isomer, unassigned; enantiomer b) [Example 14-B, 3-(2-chlorophenyl)-1-(5-fluoropyridin-2-yl)-N-(3-methyl-1,1-dioxidotetrahydrothiophen-3-yl)-1H-indole-6-carboxamide (Enantiomer B, Slow)]
129 nM | O=C(NC1CCS(=O)(=O)C1)c1ccc2c(-c3cccnc3)cn(-c3ccc(F)cc3)c2c1 (racemic) [Example 52, N-(1,1-dioxidotetrahydrothiophen-3-yl)-1-(4-fluorophenyl)-3-pyridin-3-yl-1H-indole-6-carboxamide (racemic)]
5.6 nM | CC1(NC(=O)c2ccc3c(-c4ccccc4Cl)cn(-c4ccc(F)cc4)c3c2)CCS(=O)(=O)C1 (single isomer, unassigned; enantiomer a) [Example 1-A, 3-(2-chlorophenyl)-1-(4-fluorophenyl)-N-(3-methyl-1,1-dioxidotetrahydrothiophen-3-yl)-1H-indole-6-carboxamide (Enantiomer A, fast)]
108 nM | O=C(NC1CCS(=O)(=O)C1)c1ccc2c(-c3ccccc3OC(F)F)cn(-c3ccc(F)cc3)c2c1 (racemic) [Example 42, 3-[2-(difluoromethoxy)phenyl]-N-(1,1-dioxidotetrahydrothiophen-3-yl)-1-(4-fluoropheny)-1H-indole-6-carboxamide (racemic)]
252 nM | O=C(NC1CCS(=O)(=O)C1)c1ccc2c(-c3cc(Cl)ccn3)cn(-c3ccc(F)cc3)c2c1 (racemic) [Example 21, 3-(4-chloropyridin-2-yl)-N-(1,1-dioxidotetrahydrothiophen-3-yl)-1-(4-fluorophenyl)-1H-indole-6-carboxamide (racemic)]
1.6 nM | O=C(NC1CCS(=O)(=O)C1)c1ccc2c(-c3cccc(OC(F)F)c3)cn(-c3ncc(F)cn3)c2c1 (single isomer, unassigned; enantiomer a) [Example 19-A, 3-(3-(difluoromethoxy)phenyl)-N-(1,1-dioxidotetrahydrothiophen-3-yl)-1-(5-fluoropyrimidin-2-yl)-1H-indole-6-carboxamide (enantiomer A)]
929 nM | Cc1cc(C)n(-c2cccc(-c3cn(-c4ccc(F)cc4)c4cc(C(=O)NC5CCS(=O)(=O)C5)ccc34)c2)n1 (racemic) [Example 61, 3-[3-(3,5-dimethyl-1H-pyrazol-1-yl)phenyl]-N-(1,1-dioxidotetrahydrothiophen-3-yl)-1-(4-fluorophenyl)-1H-indole-6-carboxamide (racemic)]
4 nM | COc1cccc(-c2cn(-c3ccc(F)cc3)c3cc(C(=O)NC4CCS(=O)(=O)C4)ccc23)c1 (racemic) [Example 33, N-(1,1-dioxidotetrahydrothiophen-3-yl)-1-(4-fluorophenyl)-3-(3-methoxyphenyl)-1H-indole-6-carboxamide (racemic)]
934 nM | Cc1c(-c2ccccc2Cl)c2ccc(C(=O)NC3(C)CCS(=O)(=O)C3)cc2n1-c1ccc(F)cc1 (single isomer, unassigned; enantiomer a) [Example 8-A, 3-(2-chlorophenyl)-1-(4-fluorophenyl)-2-methyl-N-(3-methyl-1,1-dioxidotetrahydrothiophen-3-yl)-1H-indole-6-carboxamide (Enantiomer A)]
14 nM | O=C(NC1CCS(=O)(=O)C1)c1ccc2c(-c3cccc(OC(F)(F)F)c3)cn(-c3ccc(F)cc3)c2c1 (racemic) [Example 58, N-(1,1-dioxidotetrahydrothiophen-3-yl)-1-(4-fluorophenyl)-3-[3-(trifluoromethoxy)phenyl]-1H-indole-6-carboxamide (racemic)]
66 nM | O=C(NC1CCS(=O)(=O)C1)c1ccc2c(-c3ccccc3Cl)cn(-c3ccc(F)cc3)c2c1 (racemic) [Example 2, 3-(2-Chlorophenyl)-N-(1,1-dioxidotetrahydrothiophen-3-yl)-1-(4-fluorophenyl)-1H-indole-6-carboxamide]
26 nM | O=C(NC1CCS(=O)(=O)C1)c1ccc2c(-c3ccccc3F)cn(-c3ccc(F)cc3)c2c1 (racemic) [Example 40, N-(1,1-dioxidotetrahydrothiophen-3-yl)-3-(2-fluorophenyl)-1-(4-fluorophenyl)-1H-indole-6-carboxamide (racemic)]
53 nM | O=C(NC1CCS(=O)(=O)C1)c1ccc2c(-c3c(F)cccc3F)cn(-c3ccc(F)cc3)c2c1 (racemic) [Example 48, 3-(2,6-difluorophenyl)-N-(1,1-dioxidotetrahydrothiophen-3-yl)-1-(4-fluorophenyl)-1H-indole-6-carboxamide (racemic)]

— patent publication US10947222B2, “Indole derivatives useful as inhibitors of diacylglyceride O-acyltransferase 2” (Merck Sharp & Dohme Corp., priority 2016, dated 2021)
